From patent USRE49698E1, “Substituted dihydroquinazolines” (AiCuris Anti-infective Cures GmbH, priority 2003, dated 2023)
Structures can show the parent of a compound that is named as a salt. Where two headings read alike, the source gives them in different places.

Columns and labels:
[1] = Cytostatic effect on NHDF cells in the anti-HCMV cytopathogenicity test plates; assay type: cell-based; conditions: human, human prepuce fibroblasts (NHDF cells), 6 days incubation, visual assessment, concentration at which no visible cytostatic effects are evident vs untreated cell control
Protocol: (§1) Anti-HCMV (Anti-Human Cytomegalovirus) Cytopathogenicity Tests
(§2) The test compounds are employed as 50 millimolar (mM) solutions in dimethyl sulphoxide (DMSO). Ganciclovir®, Foscarnet® and Cidofovir® are used as reference compounds. After addition of in each case 2 μl of the 50, 5, 0.5 and 0.05 mM DMSO stock solutions to 98 μl portions of cell culture medium in row 2 A-H for duplicate determinations, 1:2 dilutions are carried out with 50 μl portions of medium up to row 11 of the 96-well plate. The wells in rows 1 and 12 each contain 50 μl of medium. In 150 μl of a suspension of 1×10^4 cells (human prepuce fibroblasts [NHDF]) are pipetted into each of the wells (row 1=cell control) and, in rows 2-12, a mixture of HCMV-infected and uninfected NHDF cells (M.O.I.=0.001-0.002), i.e. 1-2 infected cells per 1000 uninfected cells. Row 12 (without substance) serves as virus control. The final test concentrations are 250-0.0005 μM. The plates are incubated at 37° C./5% CO2 for 6 days, i.e. until all the cells are infected in the virus controls (100% cytopathogenic effect [CPE]). The wells are then fixed and stained by adding a mixture of formalin and Giemsa's dye (30 minutes), washed with double-distilled water and dried in a drying oven at 50° C. The plates are then assessed visually using an overhead microscope (Plaque Multiplier from Technomara).
The following data can be acquired from the test plates: […]

[2] = tested on: HCMV; assay: Anti-HCMV (anti-human cytomegalovirus) cytopathogenicity test; assay type: cell-based
Protocol: as §1, §2
The following data can be acquired from the test plates:
SI (selectivity index)=CC50 (NHDF)/EC50 (HCMV).

[3] = Human betaherpesvirus 5, NHDF, 144 h; read-out: HCMV EC50
[4] = Human betaherpesvirus 5, NHDF, 144 h, read-out: HCMV EC50

Row | SMILES | EC50 [2, 3] | CC50 at 6 days [1] | SI HCMV (selectivity index) ([2]; CC50 (NHDF)/EC50 (HCMV)) | EC50 [2, 4]
1 | Cc1cccc(N2CCN(C3=Nc4c(F)cccc4C(CC(=O)O)N3c3cccc(C(F)(F)F)c3)CC2)c1 (single isomer, unassigned) [Example 9, {8-Fluoro-2-[4-(3-methylphenyl)-1-piperazinyl]-3-[3-(trifluoromethyl)phenyl]-3,4-dihydro-4-quinazolinyl}acetic acid hydrochloride] | – | 15000 nM | 750 | 20 nM
2 | COc1ccc(Cl)cc1N1C(N2CCN(c3ccc(F)cc3)CC2)=Nc2c(F)cccc2C1CC(=O)O (single isomer, unassigned) [Example 23, {8-Fluoro-2-[4-(4-fluorophenyl)-1-piperazinyl]-3-[6-methoxy-3-chlorophenyl]-3,4-dihydro-4-quinazolinyl}acetic acid hydrochloride] | – | 24000 nM | 12632 | 2 nM
3 | NC(=O)c1ccc2c(c1)C(CC(=O)O)N(c1cccc(C(F)(F)F)c1)C(N1CCN(c3cccc(Cl)c3)CC1)=N2 (stereo not shown) [Example 29] | 70 nM | 47000 nM | 671 | –

Now from value to molecule, other results behind:

Row | EC50 [2, 3] | SMILES | CC50 at 6 days [1] | SI HCMV (selectivity index) ([2]; CC50 (NHDF)/EC50 (HCMV)) | EC50 [2, 4]
4 | 16 nM | O=C(O)CC1c2cccc(F)c2N=C(N2CCN(c3ccc(F)cc3)CC2)N1c1cccc(C(F)(F)F)c1 (single isomer, unassigned) [Example 2, {8-Fluoro-2-[4-(4-fluorophenyl)-1-piperazinyl]-3-[3-(trifluoromethyl)phenyl]-3,4-dihydro-4-quinazolinyl}acetic acid] | 12000 nM | 750 | –
5 | 2 nM | COc1cccc(N2CCN(C3=Nc4c(F)cccc4C(CC(=O)O)N3c3cc(C(F)(F)F)ccc3OC)CC2)c1 (single isomer, unassigned) [Example 15, {8-Fluoro-2-[4-(3-methoxyphenyl)-1-piperazinyl]-3-[2-methoxy-5-(trifluoromethyl)phenyl]-3,4-dihydro-4-quinazolinyl}acetic acid] | – | – | –
6 | 2 nM | COc1ccc(C(F)(F)F)cc1N1C(N2CCN(c3ccc(F)cc3)CC2)=Nc2c(F)cccc2C1CC(=O)O (single isomer, unassigned) [Example 19, {8-Fluoro-2-[4-(4-fluorophenyl)-1-piperazinyl]-3-[2-methoxy-5-(trifluoromethyl)phenyl]-3,4-dihydro-4-quinazolinyl}acetic acid] | 17000 nM | 8947 | –
